The term ED50 denotes the dose that gives a 50% effect, or the effect in half of the subjects.

The source made the active and inactive calls. The calls are words filed in the database; no cut-off is given here.

For series [1], the system named is Mus musculus. The experiment in a line: Analgesic activity in formalin-induced albino CF1 mouse model of hyperalgesia assessed as time spent in paw licking during inflammatory phase at 186 mg/kg, ip administered 0.25 hrs prior to formalin challenge measured first 2 mins of five minutes test for 10 mins by formalin test relative to control. The series is classed as functional.

Series [2] relates to Mus musculus. The experiment in a line: Analgesic activity in formalin-induced albino CF1 mouse model of hyperalgesia assessed as time spent in paw licking during acute phase at 186 mg/kg, ip administered 0.25 hrs prior to formalin challenge measured first 2 mins of five minutes test for 10 mins by formalin test relative to control. The class given is functional.
Series [3] deals with Mus musculus. Kind of series: Anticonvulsant activity in albino CF1 mouse assessed as time to clonus at 180 mg/kg, ip administered 0.5 hrs prior to MTZ challenge (reference value: 29.3 +/- 1.2 s). The class given is functional.
Series [4] concerns Mus musculus. The experiment in a line: Anticonvulsant activity in albino CF1 mouse model of metrazol-induced seizures assessed as metrazol dose causing first twitch at 56 mg/kg, ip administered 0.5 hrs prior to MTZ challenge (reference value: 25.6 +/- 0.9 mg/kg). The series is classed as functional.
Series [5] deals with Mus musculus. Kind of series: Anticonvulsant activity in albino CF1 mouse assessed as metrazol dose causing first clonus at 180 mg/kg, ip administered 0.5 hrs prior to MTZ challenge (reference value: 28.4 +/- 1.1 mg/kg). The class given is functional.
The subject of series [6] is Mus musculus. Kind of series: Anticonvulsant activity in 60-Hz corneal stimulation-induced full kindling albino CF1 mouse model of epilepsy assessed as reduction in seizure score at 42 mg/kg, ip administered 0.25 hrs prior to 60-Hz corneal stimulation. The class given is functional, organism-based.
The subject of series [7] is Mus musculus. Kind of series: Anticonvulsant activity in ip dosed 60-Hz corneal stimulation-induced full kindling albino CF1 mouse model of epilepsy assessed as reduction in seizure score treated 0.25 hrs prior to 60-Hz corneal stimulation. The class given is functional.
A short description of series [8]: Toxicity in albino CF1 mouse assessed as body weight at 180 mg/kg, ip measured at 0.5 hrs (reference value: 29.3 +/- 0.3 g). The series is classed as organism-based. To be noted: in vivo.
The test system of series [9] is Mus musculus. Kind of series: Anticonvulsant activity in albino CF1 mouse model of metrazol-induced seizures assessed as time to twitch at 56 mg/kg, ip administered 0.5 hrs prior to MTZ challenge (reference value: 26.5 +/- 1.0 s). The series is classed as functional.
Series [10] concerns Mus musculus. The experiment in a line: Anticonvulsant activity in albino CF1 mouse assessed as metrazol dose causing first clonus at 56 mg/kg, ip administered 0.5 hrs prior to MTZ challenge (reference value: 28.4 +/- 1.1 mg/kg). The class given is functional.
In series [11] the test system is Mus musculus. Kind of series: Anticonvulsant activity in 60-Hz corneal stimulation-induced full kindling albino CF1 mouse model of epilepsy assessed as reduction in seizure score at 70 mg/kg, ip administered 0.25 hrs prior to 60-Hz corneal stimulation. The class given is functional, organism-based.
The test system of series [12] is Mus musculus. Kind of series: Anticonvulsant activity in 60-Hz corneal stimulation-induced full kindling albino CF1 mouse model of epilepsy assessed as reduction in seizure score at 15 mg/kg, ip administered 0.25 hrs prior to 60-Hz corneal stimulation. The series is classed as functional, organism-based.
For series [13], the system named is Mus musculus. The experiment in a line: Anticonvulsant activity in albino CF1 mouse model of metrazol-induced seizures assessed as time to twitch at 180 mg/kg, ip administered 0.5 hrs prior to MTZ challenge (reference value: 26.5 +/- 1.0 s). The series is classed as functional.
The test system of series [14] is Mus musculus. The experiment in a line: Anticonvulsant activity in albino CF1 mouse assessed as time to clonus at 56 mg/kg, ip administered 0.5 hrs prior to MTZ challenge (reference value: 29.3 +/- 1.2 s). The series is classed as functional.
Series [15] can be described thus: Toxicity in albino CF1 mouse assessed as body weight at 56 mg/kg, ip measured at 0.5 hrs (reference value: 29.3 +/- 0.3 g). To be noted: in vivo. The class given is organism-based.
For series [16], the system named is Mus musculus. Kind of series: Anticonvulsant activity in 60-Hz corneal stimulation-induced full kindling albino CF1 mouse model of epilepsy assessed as reduction in seizure score at 25 mg/kg, ip administered 0.25 hrs prior to 60-Hz corneal stimulation. The class given is functional, organism-based.
Series [17] has as its system Mus musculus. The experiment in a line: Anticonvulsant activity in albino CF1 mouse model of metrazol-induced seizures assessed as metrazol dose causing first twitch at 180 mg/kg, ip administered 0.5 hrs prior to MTZ challenge (reference value: 25.6 +/- 0.9 mg/kg). The class given is functional.

As for `O=C(/C=C/c1ccc(Cl)cc1)N[C@H]1CC[C@H](O)CC1`, the Activity in series [1] was determined as 0%; in series [2] it was 21.89%.
Regarding `CC(O)CNC(=O)/C=C/c1ccc(Cl)cc1` (racemic), the Time is reported as 106.1 s in [3], 45.1 s in series [9], 60.8 s in [13] and 65.6 s in [14]. The Activity in [4] is 45 mg/kg; in series [5], 105.4 mg/kg; in series [8], 28.6 g; in series [10] it was 65.4 mg/kg; in series [15] it was 28.4 g; in [17], 60.3 mg/kg. For the same compound, the result in series [6], in series [12] and in [16] was inactive. Further, in series [7], the ED50 is 51.1 mg/kg. Also, in series [11], the outcome was Active.

(Values after ChEMBL document CHEMBL4387714, “Four N-(E)-cinnamoyl (cinnamamide) derivatives of aminoalkanols with promising anticonvulsant and analgesic activity” (Bioorg Med Chem Lett, 2019).)
